The values below come from US20070134185A1, “Use of dithiols in a hair-perming composition” (priority 2003, published 2007).

Data set [1] is described as follows: Permanent waving of hair locks with reducing lotion. The conditions noted are these: reducing lotion 20.83 g Compound A1 per 100 g, pH = 7, 15 minutes on curled hair, fixing with hydrogen peroxide at 8 volumes pH=3. As for the experimental part: A reducing lotion is prepared:
The above lotion is applied to locks of grey hair which is 90% white. Curls are produced using curlers. The lotion is allowed to act on the curled hair for 15 minutes. The hair is rinsed with water. A conventional fixing composition based on hydrogen peroxide (hydrogen peroxide at 8 volumes, pH=3), is applied. Another rinsing is carried out. The curlers are removed.

Data set [2] can be described thus: Oxidation dyeing of permanently waved hair. The conditions noted are these: compared with identical permanent waving with thioglycolic acid instead of A1, at equivalent curliness.
For data set [3] the following is noted: cited from earlier work.

As for `CN(C(=O)CS)N(C)C(=O)CS` [Compound A1], the curliness result in data set [1] was “Good curliness”. For the same compound, the “colour after 7.44 CRESCENDO oxidation dye on permanently waved hair” value in data set [2] is “closer to that obtained on non-permanently waved hair”.
Turning to `O=S(=O)(CCS)CCS` [BMS, bis(2-mercaptoethyl)sulphone], the solubility in water result in data set [3] is recorded as “very sparingly soluble in water”.
